Experimental data published in patent US6451971B1, “Physiologically active peptides” (Hisamitsu Pharmaceutical Co., Ltd., priority 1999, dated 2002).
Entries after “also recorded” stand apart in the source; their conditions may differ. Where no end group is shown, it is not given here.

Assays:
[1] = tested on: K562 cell line derived from human chronic myelocytic leukemia; experiment: Cell adhesion inhibitory activity on Mn2+-treated anchorage-independent K562 cells on fibronectin-coated plates; format: cell-based; conditions: for cell adhesion inhibitory activity (alanine scanning): K562 cells, biotinylated peptides of Table 1, conducted similarly to Example 2, FIG. 6
Source text: (§1) (Danen et al., J. Biol. Chem., 270, 37, 21612, 1995; Mould et al., J. Biol. Chem., 270, 44, 26270, 1995.) This allows the cells to acquire adhesiveness to the extracellular matrices mediated by integrins. Such experimental induction of adhesion can be utilized as models for cell adhesion in the processes of metastatis of cancer cells and infiltration of inflammatory cells into tissues.
(§2) The K562 cell line derived from human chronic myelocytic leukemia, U937 cell line derived from human hystiocytic lymphoma and Ramos cell line derived from human Burkitt's lymphoma (all available from American Type Tissue Culture Collection-ATCC), which are one kind of anchorage-independent cells, were then treated with Mn^2+ to prepare a system, where the cell adhesion inhibitory activity of the peptides was evaluated.
Ninety six well plates were coated with fibronectin, which is one kind of extracellular matrix: fibronectin (FN) was prepared by the method of Fukai et al., J. Biol. Chem., 266, 8807, 1991. After cells were suspended to a cell density of 2×10^5/ml in a HEPES buffered physiological saline containing 0.1 mM Mn^2+, the cells (100 μl) were added to the plate and incubated at 37° C. under 5% CO2 for 60 min. Concurrently with addition of the cell suspension, the biotinylated peptide as synthesized in Example 1 (the amino acid sequence of the peptide portion is set forth in SEQ ID NO: 2) was added to the plate to give a final concentration of from 50 to 200 μg/ml. […] As a negative control, the group to which only biotin (unbound with the peptide) had been added was also evaluated.
FN coating was carried out by adding to each well, FN phosphate buffer (100 μl) that had been prepared to 10 μg/ml, by conducting incubation at 37° C. under 5% CO2 for 60 min and then by washing the well with phosphate buffer 3 times. After cells in each well were fixed with 5% formaldehyde (Wako Pure Chemical Industries, Ltd.), unbound cells were removed and five areas were randomly selected in each well to count the cells under a microscope.
The alanine scanning method is a technique that is used to identify amino acid sequence regions essential to physiological activities of proteins and peptides. (Puffer et al., J. Virol., 71, 6541, 1997; Wu and Hersh, J. Biol. Chem., 270, 49, 29111, 1995.) This method was then employed to analyze the present peptides. The peptides listed in Table 1, all of which were biotinylated (Example 1), were used in the experiments. For evaluation, the K562 cells derived from human chronic myelocytic leukemia, which was one kind of anchorage-independent cell, were used.
Evaluation of the cell adhesion inhibitory activity was conducted similarly to Example 2.

[2] = tested on: U937 cell line derived from human hystiocytic lymphoma; experiment: Cell adhesion inhibitory activity on Mn2+-treated anchorage-independent U937 cells on fibronectin-coated plates; format: cell-based; conditions: U937 cells in 0.1 mM Mn2+, biotinylated peptide 50 to 200 μg/ml, 60 min, adherent cells counted
Source text: as §1, §2
(§3) Ninety six well plates were coated with fibronectin, which is one kind of extracellular matrix: fibronectin (FN) was prepared by the method of Fukai et al., J. Biol. Chem., 266, 8807, 1991. After cells were suspended to a cell density of 2×10^5/ml in a HEPES buffered physiological saline containing 0.1 mM Mn^2+, the cells (100 μl) were added to the plate and incubated at 37° C. under 5% CO2 for 60 min. […] As a negative control, the group to which only biotin (unbound with the peptide) had been added was also evaluated. […]

[3] = tested on: Ramos cell line derived from human Burkitt's lymphoma; experiment: Cell adhesion inhibitory activity on Mn2+-treated anchorage-independent Ramos cells on fibronectin-coated plates; format: cell-based; conditions: Ramos cells in 0.1 mM Mn2+, biotinylated peptide 50 to 200 μg/ml, 60 min, adherent cells counted
Source text: as §1, §2, §3

[4] = tested on: human melanoma A375SM cells; experiment: Cell adhesion (spreading) inhibitory activity on anchorage-dependent A375SM cells; format: cell-based; conditions: fibronectin- or vitronectin-coated plates, biotinylated peptide 50 to 200 μg/ml, 60 min
Experimental: (§4) The human melanoma A375SM cells and human fibrosarcoma HT1080 (both available from ATCC), which are anchorage-dependent cells, were used in the evaluation. Cell adhesion inhibitory activity was evaluated according to the method of Fukai et al. as described in Biochem. Biophys. Res. Commun., 220, 394-398, 1996. The number of spread cells was counted as an index of the cell adhesion inhibitory activity.
(§5) A375SM cells or HT1080 cells were prepared to 2×10^5/ml in Dulbecco's Modified Eagle Medium (DMEM: GIBCO BRL) containing 0.1% Ovalbumin (Wako Pure Chemical Industries, Ltd.). This cell suspension (100 μl) was added to 96-well plates that had been coated with fibronectin or vitronectin (VN), which are one kind of extracellular matrix, and incubated at 37° C. under 5% CO2 for 60 min. Concurrently with addition of the cell suspension, the biotinylated peptide as synthesized in Example 1 was added to the plates to give a final concentration of from 50 to 200 μg/ml. […] FN and VN coatings were carried out by adding to each well, FN or VN phosphate buffered saline (100 μl) that had been prepared to 0.5 μg/ml, by conducting incubation at 37° C. under 5% CO2 for 60 min and then by washing the well with phosphate buffered saline 3 times. […]

[5] = tested on: human fibrosarcoma HT1080; experiment: Cell adhesion (spreading) inhibitory activity on anchorage-dependent HT1080 cells; format: cell-based; conditions: fibronectin- or vitronectin-coated plates, biotinylated peptide 50 to 200 μg/ml, 60 min
Experimental: as §4, §5

[6] = tested on: melanoma cells; conditions: Humphries, Science 233, 467, 1986; cited from earlier work
[7] = Saiki et al., Jpn. J. Cancer Res., 84, 558, 1993; cited from earlier work
[8] = Saiki et al., Jpn. J. Cancer Res., 84, 558, 1993; cited from earlier work; remark: listed apart in the source

Gly Leu Lys Pro Gly Val Asp Tyr Thr Ile Thr Ala Tyr Ala Val (GLKPGVDYTITAYAV; also: biotinylated (place not given here)) [SEQ ID NO: 7]
cell adhesion inhibitory activity (alanine scanning) [1]: equal to or greater than the cell adhesion inhibitory activity of the peptide set forth in SEQ ID NO: 2

Gly Leu Lys Pro Gly Val Asp Tyr Ala Ile Thr Val Tyr Ala Val (GLKPGVDYAITVYAV; also: biotinylated (place not given here)) [SEQ ID NO: 4]
cell adhesion inhibitory activity (alanine scanning) [1]: cell adhesion inhibitory activity was lost

Gly Leu Lys Pro Gly Val Asp Tyr Thr Ile Thr Val Ala Ala Val (GLKPGVDYTITVAAV; also: biotinylated (place not given here)) [SEQ ID NO: 8]
cell adhesion inhibitory activity (alanine scanning) [1]: equal to or greater than the cell adhesion inhibitory activity of the peptide set forth in SEQ ID NO: 2

Gly Leu Lys Pro Gly Val Asp Tyr Thr Ala Thr Val Tyr Ala Val (GLKPGVDYTATVYAV; also: biotinylated (place not given here)) [SEQ ID NO: 5]
cell adhesion inhibitory activity (alanine scanning) [1]: cell adhesion inhibitory activity was lost

Gly Leu Lys Pro Gly Val Asp Tyr Thr Ile Ala Val Tyr Ala Val (GLKPGVDYTIAVYAV; also: biotinylated (place not given here)) [SEQ ID NO: 6]
cell adhesion inhibitory activity (alanine scanning) [1]: cell adhesion inhibitory activity was lost

Gly Leu Lys Pro Gly Val Asp Ala Thr Ile Thr Val Tyr Ala Val (GLKPGVDATITVYAV; also: biotinylated (place not given here)) [SEQ ID NO: 3]
cell adhesion inhibitory activity (alanine scanning) [1]: equal to or greater than the cell adhesion inhibitory activity of the peptide set forth in SEQ ID NO: 2; also recorded: much greater cell adhesion inhibitory activity compared to the peptide set forth in SEQ ID NO: 2 | cell adhesion inhibitory activity (alanine scanning) ([1]; listed as SEQ NO: 3): stronger cell adhesion inhibitory activity than did SEQ NO: 2

Gly Leu Lys Pro Gly Val Asp Tyr Thr Ile Thr Val Tyr Ala Val (GLKPGVDYTITVYAV; also: biotinylated (place not given here)) [SEQ ID NO: 2]
cell adhesion inhibitory effect ([1]; K562 cells in 0.1 mM Mn2+, fibronectin-coated plates, biotinylated peptide 50 to 200 μg/ml, 60 min, adherent cells counted): nearly equal to the activity of a known cell adhesion inhibitory peptide | cell adhesion inhibitory activity (alanine scanning) [1]: cell adhesion inhibitory activity was noted | cell adhesion inhibitory effect [2]: nearly equal to the activity of the known cell adhesion inhibitory peptide | cell adhesion inhibitory effect [3]: nearly equal to the activity of the known cell adhesion inhibitory peptide | cell adhesion inhibitory action (number of spread cells) [4]: exhibits no such action at all | cell adhesion inhibitory action (number of spread cells) [5]: exhibits no such action at all

SEQ ID NO: 10: known peptide possessing cell adhesion inhibitory activity (Japanese Unexamined Patent Application Hei 10-147600); sequence not printed in the text (TEATIYGLEPGTEYTIYVIAL) [reference compound]
cell adhesion inhibitory action (number of spread cells) [4]: had a cell adhesion inhibitory action; also recorded: possesses a cell spreading inhibitory action | cell adhesion inhibitory action (number of spread cells) [5]: had a cell adhesion inhibitory action; also recorded: possesses a cell spreading inhibitory action

Gly Leu Lys Pro Gly Val Asp Tyr Thr Ile Thr Val Tyr Ala Ala (GLKPGVDYTITVYAA; also: biotinylated (place not given here)) [SEQ ID NO: 9]
cell adhesion inhibitory activity (alanine scanning) [1]: equal to or greater than the cell adhesion inhibitory activity of the peptide set forth in SEQ ID NO: 2

GRGDS [GRGDS peptide]
inhibition of experimental metastasis of melanoma cells to the lung [6]: inhibits the experimental metastasis of melanoma cells to the lung | rate of clearance from the circulation following administration [7]: fast | decomposition by enzyme [8]: liable to be decomposed by enzyme
